Test results from PMC11645656, “MRGPRX4 mediates phospho-drug associated pruritus in a humanized mouse model” (Science translational medicine, 2024).
Several values for one entry are separate records, joined by “and”; a condition that tells them apart may be missing. Identical values can stand only once.

Assays:
MRGPRX4 WT (S83) [1] = molecular target: T1, MRGPRX4 WT (S83) (Homo sapiens, UniProt Q96LA9, L83S); assay: PRESTO-Tango β-arrestin recruitment assay, HTLA cells stably expressing WT (S83) MRGPRX4; format: cell-based; parameters: expressed in transfected cells; settings: for PRESTO-Tango response (fig. S1), single replicate: HTLA::MRGPRX4; for fig. S7 response (raw signal), concentration-response: WT, single replicate
T1 sequence (Q96LA9 whole entry L83S): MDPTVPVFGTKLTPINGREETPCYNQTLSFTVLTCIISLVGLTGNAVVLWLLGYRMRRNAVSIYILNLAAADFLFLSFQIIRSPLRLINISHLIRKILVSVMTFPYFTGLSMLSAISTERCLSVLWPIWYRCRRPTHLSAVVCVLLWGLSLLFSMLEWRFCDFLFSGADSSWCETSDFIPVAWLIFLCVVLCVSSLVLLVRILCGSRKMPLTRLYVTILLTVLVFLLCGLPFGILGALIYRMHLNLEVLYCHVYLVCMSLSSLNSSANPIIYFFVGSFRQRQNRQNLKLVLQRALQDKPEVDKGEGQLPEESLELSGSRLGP

WT NP1-3 DRG neurons = assay: GCaMP6s calcium imaging of NP1-3 DRG neurons from Pirt-Cre; Rosa-lsl-GCaMP6s mice; format: cell-based, mouse; settings: 10 µM
Experimental: Murine DRGs (from both male and female) were harvested from all spinal segments and digested in dispase (5 mg/ml) / type I collagenase (1 mg/ml) enzyme mix at 37 °C for an hour. Enzyme mix was replaced with complete DH10 media (90% DMEM/F12, 10% FBS, penicillin (100 units/ml), and streptomycin (100 μg/ml)) and gently triturated with 1 ml pipette tip until the media turned cloudy without visible tissue chunks. Dissociated tissues were filtered through a 70 μm filter and spun down 1250 rpm for 5 min at RT. Supernatant was removed and the cell pellet was resuspended in complete DH10 media. Cell suspension was then added on top of poly-D-lysine- and laminin-coated coverslips and sat for 1–2 h at 37°C. Complete DH10 media supplemented with NGF (50 ng/ml) was then added into the vessel. Neurons were allowed to recover overnight at 37°C for the next-day calcium imaging experiment.
Calcium imaging data was collected with a Nikon Eclipse TE 200 microscope. Time series GCaMP6 fluorescence intensity was acquired through the FITC/GFP channel. […] Neurons with GCaMP6 signal rose above 50% of the baseline intensity after compound application were counted as positive responders and the percentage of responding neurons was calculated. […]
(top) and individual (bottom) calcium activity, measured by fluorescence intensity normaliz ed to […]
activity from the recorded neurons is shown in heatmap. […]

MRGPRX4 WT (S83) [2] = molecular target: T1, MRGPRX4 WT (S83); assay: Calcium mobilization assay (FLIPR), WT (S83) MRGPRX4 transiently expressed in HEK293T cells; format: cell-based; parameters: expressed in transfected cells; host or cells: HEK293T, transient
Text: Fig. 4. […] Hydrogen bond is shown as cyan dashed lines. […] Data are from three independent experiments, performed in triplicate. (E) pEC50 plots of various agonists toward S83- and L83-MRGPRX4 through calcium mobilization assay. […] Each data point represents an independent experiment, performed in triplicate. The extra sum-of-square F test was used to examine the difference in EC50 values. One-sided t-test was used for nateglinide. *p< 0.05, **p< 0.01 and ***p< 0.001. ns = no statistical significance. Both (D) and (E) are reported as the mean ± SEM. N.D.= no detectable response ≤ 100 μM.
HEK293 cells and MRGPRX4 stably expressed HEK293 cells were seeded in 100 μl culture media on 96-well plates at a density of 40,000 cells per well and incubated overnight. The next day, the media were replaced with a dye-loading solution from the FLIPR Calcium 5 assay kit (Molecular Devices), diluted in Hank's Balanced Salt Solution (HBSS) with 20 mM HEPES, pH 7.4. After 1 h of incubation at 37°C, cells were allowed to recover for 10 min in the dark at room temperature prior to performing intracellular calcium mobilization assay in a Flexstation-3 instrument with SoftMax®Pro 7.1 software (Molecular Devices). Serial concentrations of tested drugs were prepared in HBSS/HEPES solution at 3X concentration. […] Compounds were tested in triplicates and the signals were averaged. Responses were determined by subtracting the minimum signal (at the baseline before adding the drug) from the maximum signal (obtained after drug stimulation). Four-parameter logistic (4PL) curve fit was used to plot the dose-response curves. […] Both dose-response curve fitting and EC50s calculation are computed with GraphPad Prism software (version: 6.o or above).
To generate murine Mrgprs expressing cells, HEK293T cells (ATCC) were seeded on poly-D-lysine coated 96 well plate at 25,000 cells per well one day prior to transfection. HEK293T cells were transiently co-transfected with the mammalian expression plasmids carrying cDNA encoding the murine Mrgpr genes and plasmid inserted with cDNA encoding murine α-subunit of the heterotrimeric G15 protein (Gα15) in triplicates using Lipofectamine LTX reagents (Thermo Scientific). To generate WT, S83L, and alanine mutant MRGPRX4-expressing cells, HEK293T cells were seeded on poly-D-lysine coated 384 well plate at 12,000 cells per well one day prior to transfection. Mammalian expression plasmids pLX304 (vector from Addgene) carrying different MRGPRX4 coding sequences were transiently transfected into HEK293T cells in triplicates with Lipofectamine LTX reagents (Thermo Scientific). Intracellular calcium mobilization assays were performed after one day of transfection. Murine Mrgprs tested include Mrgpra1, Mrgpra2a, Mrgpra2b, Mrgpra3, Mrgpra4, Mrgpra6, Mrgpra9, Mrgpra10, Mrgpra11, Mrgpra12, Mrgpra14, Mrgprb5, Mrgprb6, Mrgprb10, Mrgprb11, and Mrgprc11. WT and mutant MRGPRX4 constructs tested include WT, S83L, R82A, R86A, R95A, W158A, Y250A, and Y254A.

Question: What does the source list for `CC(C)c1cccc(C(C)C)c1OCOP(=O)(O)O` [Fospropofol]?
Answer: PRESTO-Tango response (fig. S1), single replicate (MRGPRX4 WT (S83) [1]; concentration 1.95e-9 M): 0.05347 and 0.06522 and 0.05931 and 0.2207 and 0.1773 and 0.1674 and 0.1338 and 0.1758 and 0.0967; PRESTO-Tango response (fig. S1), single replicate (MRGPRX4 WT (S83) [1]; concentration 3.91e-9 M): 0.1053 and 0.08982 and 0.09599 and 0.3062 and 0.2141 and 0.1584 and 0.1973 and 0.1505 and 0.1812; PRESTO-Tango response (fig. S1), single replicate (MRGPRX4 WT (S83) [1]; concentration 7.81e-9 M): 0.09268 and 0.116 and 0.1017 and 0.3688 and 0.253 and 0.2802 and 0.1468 and 0.2156 and 0.1585; PRESTO-Tango response (fig. S1), single replicate (MRGPRX4 WT (S83) [1]; concentration 1.56e-8 M): 0.2132 and 0.2887 and 0.213 and 0.6375 and 0.7915 and 0.6641 and 0.3649 and 0.3666 and 0.1947; PRESTO-Tango response (fig. S1), single replicate (MRGPRX4 WT (S83) [1]; concentration 3.13e-8 M): 0.293 and 0.3131 and 0.2408 and 1.844 and 1.563 and 1.804 and 0.7421 and 0.6696 and 0.4151; PRESTO-Tango response (fig. S1), single replicate (MRGPRX4 WT (S83) [1]; concentration 6.25e-8 M): 0.5602 and 0.5719 and 0.4853 and 3.825 and 3.698 and 3.023 and 1.231 and 1.143 and 1.136; PRESTO-Tango response (fig. S1), single replicate (MRGPRX4 WT (S83) [1]; concentration 1.25e-7 M): 0.9649 and 0.9632 and 0.8205 and 5.958 and 5.765 and 4.1962 and 2.249 and 2.15 and 1.832; PRESTO-Tango response (fig. S1), single replicate (MRGPRX4 WT (S83) [1]; concentration 2.5e-7 M): 1.521 and 1.3 and 1.661 and 7.755 and 5.82 and 6.8361 and 3.176 and 3.046 and 2.687; PRESTO-Tango response (fig. S1), single replicate (MRGPRX4 WT (S83) [1]; concentration 5e-7 M): 1.9 and 1.632 and 1.827 and 8.423 and 7.014 and 7.51 and 3.752 and 3.569 and 3.3596; PRESTO-Tango response (fig. S1), single replicate (MRGPRX4 WT (S83) [1]; concentration 1e-6 M): 2.509 and 2.322 and 1.947 and 8.611 and 7.367 and 6.973 and 3.852 and 4.064 and 3.742; PRESTO-Tango response (fig. S1), single replicate (MRGPRX4 WT (S83) [1]; concentration 2e-6 M): 2.446 and 2.467 and 2.134 and 8.437 and 7.773 and 6.136 and 3.188 and 3.088 and 4.194; fig. S7 response (raw signal), concentration-response (MRGPRX4 WT (S83) [1]; 1.95e-9 M): 16738 and 13375 and 17578.5 and 9669.59 and 5346.95 and 6521.98 and 5931.28 and 22070.2 and 17734.5; fig. S7 response (raw signal), concentration-response (MRGPRX4 WT (S83) [1]; 3.91e-9 M): 15842.1 and 19726.2 and 15050.8 and 18116.6 and 10530.6 and 8981.76 and 9599.26 and 30619.8 and 21413.5; fig. S7 response (raw signal), concentration-response (MRGPRX4 WT (S83) [1]; 7.81e-9 M): 28015.3 and 14682.6 and 21560.1 and 15853.2 and 9267.54 and 11599.7 and 10170.8 and 36884.4 and 25297.6; fig. S7 response (raw signal), concentration-response (MRGPRX4 WT (S83) [1]; 1.56e-8 M): 66409.6 and 36485.8 and 36662.8 and 19473.7 and 21324 and 28869.2 and 21303.6 and 63745.9 and 79152.7; fig. S7 response (raw signal), concentration-response (MRGPRX4 WT (S83) [1]; 3.13e-8 M): 180426 and 74208.2 and 66960.2 and 41510.5 and 29299.2 and 31309.9 and 24081.1 and 184359 and 156258; fig. S7 response (raw signal), concentration-response (MRGPRX4 WT (S83) [1]; 6.25e-8 M): 302326 and 123092 and 114256 and 113554 and 56022.5 and 57189.8 and 48533.4 and 382536 and 369774; fig. S7 response (raw signal), concentration-response (MRGPRX4 WT (S83) [1]; 1.25e-7 M): 419620 and 224898 and 215037 and 183215 and 96490.1 and 96321.7 and 82049.1 and 595774 and 576456; fig. S7 response (raw signal), concentration-response (MRGPRX4 WT (S83) [1]; 2.5e-7 M): 683610 and 317574 and 304633 and 268745 and 152100 and 129974 and 166066 and 775519 and 581976; fig. S7 response (raw signal), concentration-response (MRGPRX4 WT (S83) [1]; 5e-7 M): 751045 and 375202 and 356942 and 335960 and 190041 and 163176 and 182733 and 842325 and 701403; fig. S7 response (raw signal), concentration-response (MRGPRX4 WT (S83) [1]; 1e-6 M): 697307 and 385223 and 406436 and 374152 and 250882 and 232214 and 194658 and 861126 and 736707; fig. S7 response (raw signal), concentration-response (MRGPRX4 WT (S83) [1]; 2e-6 M): 613596 and 318811 and 308756 and 419448 and 244609 and 246673 and 213444 and 843724 and 777268; Activation of NP1–3 neuron populations (WT NP1-3 DRG neurons): few neurons were activated; EC50 (MRGPRX4 WT (S83) [2]; EC50s (each well represents individual experiment), WT (S83), Fig. 4E, unit not in the head, taken from Concentration (M) of the sheet and pEC50 [M] of Fig. 4E): 2.8e-08 M and 4.03e-08 M and 1.9e-08 M; calcium mobilization response (Fig. 3E and 3F dose-response) (MRGPRX4 WT (S83) [2]; WT, 4.57e-8 M): 59.0909; calcium mobilization response (Fig. 3E and 3F dose-response) (MRGPRX4 WT (S83) [2]; WT, 4.12e-7 M): 88.6023; Calcium mobilization response (Fig. 4D dose-response) (MRGPRX4 WT (S83) [2]; WT, 4.12e-7 M, each cell one replicate): 88.6023; Potency at S83- vs L83-MRGPRX4 (MRGPRX4 WT (S83) [2]; calcium mobilization, compared with S83L (A17)): improved potency at S83-MRGPRX4
